This is an account of results in patent US20220041647A1, “ESTRA-1,3,5(10)-TRIENE COMPOUNDS CONDENSED IN POSITION 16(17) WITH A PYRAZOLE RING AS INHIBITORS OF 17-HSD1” (FORENDO PHARMA LTD, priority 2018, published 2022).

Test [1] deals with T1, recombinant human 17β-HSD1 (Homo sapiens, UniProt P14061).
T1 construct: made in house; host or cells: Sd9 (Sf9) insect cells, baculovirus (Bac to Bac Expression System)
T1 sequence (P14061 1-328): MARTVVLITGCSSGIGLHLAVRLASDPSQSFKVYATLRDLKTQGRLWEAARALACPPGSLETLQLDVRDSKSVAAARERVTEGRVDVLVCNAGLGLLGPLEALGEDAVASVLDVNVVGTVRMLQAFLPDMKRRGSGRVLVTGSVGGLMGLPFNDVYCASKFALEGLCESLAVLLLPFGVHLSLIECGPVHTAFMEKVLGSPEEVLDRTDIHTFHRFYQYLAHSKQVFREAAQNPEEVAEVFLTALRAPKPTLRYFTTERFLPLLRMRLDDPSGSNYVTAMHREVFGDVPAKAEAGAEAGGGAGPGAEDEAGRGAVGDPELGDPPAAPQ
In words: Inhibition of recombinant human 17β-HSD1 (estrone to estradiol conversion, HPLC/radioactivity). Type of test: biochemical. The following applies: compound 100 nM; 30 nM estrone, 1 mM NADPH, 30 min RT. Put shortly:
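Microsomal human 17β-HSD1 from Sf9 baculovirus (1 μg/ml) was incubated 30 min at RT in 20 mM KH2PO4 pH 7.4 with 30 nM ^3H-estrone, 1 mM NADPH and inhibitor at 1 μM or 0.1 μM (1% DMSO). Estrone and estradiol were separated by HPLC with radioactivity detection. % inhibition = 100 − % conversion relative to uninhibited control.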

Test [2] relates to HSD1 enzyme that is expressed in rabbit placenta tissue. Kind of test: Inhibition of E1 to E2 conversion in rabbit placenta tissue homogenate. Particulars: compound 100 nM, 30 nM estrone, 1 mM β-NADPH, 30 min. It counts as biochemical. Put shortly: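 Rabbit placenta homogenate (20 mM KH2PO4, 1 mM EDTA, pH 7.4) incubated 30 min with 1 mM β-NADPH, 30 nM estrone plus 5 nM [3H]-estrone tracer, and inhibitor at 1 μM or 0.1 μM (1% DMSO). Stopped with TCA; estrone and estradiol resolved by HPLC with scintillation counting; % inhibition = 100 − % conversion relative to uninhibited control.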

As for `CN1CCN(c2ccc(NC(=O)CC[C@@H]3c4c[nH]nc4[C@@]4(C)CCC5c6cccc(F)c6CCC5C34)nc2)CC1` (stereo partly drawn) [Compound 42, 3-((8aS,12S)-3-fluoro-8a-methyl-1,2,6b,7,8,8a,10,12,12a,12b-decahydronaphtho[2′,1′:4,5]indeno[1,2-c]pyrazol-12-yl)-N-(5-(4-methylpiperazin-1-yl)pyridin-2-yl)propanamide], the inhibition (usually the drop in the measured response relative to a control, in per cent) at 0.1 µM in test [1] was 91%. Besides, the “Rabbit placenta inhibition % @100 nM” value in test [2] is recorded as 82%.
With `COc1ccnc(NC(=O)CC[C@@H]2c3c[nH]nc3[C@@]3(C)CCC4c5cccc(F)c5CCC4C23)c1` (stereo partly drawn) [Compound 48, 3-((8aS,12S)-3-fluoro-8a-methyl-1,2,6b,7,8,8a,10,12,12a,12b-decahydronaphtho[2′,1′:4,5]indeno[1,2-c]pyrazol-12-yl)-N-(4-methoxypyridin-2-yl)propanamide], in test [1], the inhibition at 0.1 µM was determined as 91%. The “Rabbit placenta inhibition % @100 nM” value in test [2] amounted to 57%.
As for `C[C@]12CCC3c4cccc(F)c4CCC3C1[C@H](CCC(=O)Nc1cnccn1)c1c[nH]nc12` (stereo partly drawn) [Compound 51, 3-((8aS,12S)-3-fluoro-8a-methyl-1,2,6b,7,8,8a,10,12,12a,12b-decahydronaphtho[2′,1′:4,5]indeno[1,2-c]pyrazol-12-yl)-N-(pyrazin-2-yl)propanamide], the inhibition at 0.1 µM in test [1] amounted to 90%. For the same molecule, the “Rabbit placenta inhibition % @100 nM” value in test [2] amounted to 59%.
As for `Cn1ccc(NC(=O)CC[C@@H]2c3c[nH]nc3[C@@]3(C)CCC4c5cccc(F)c5CCC4C23)n1` (stereo partly drawn) [Compound 54, 3-((8aS,12S)-3-fluoro-8a-methyl-1,2,6b,7,8,8a,10,12,12a,12b-decahydronaphtho[2′,1′:4,5]indeno[1,2-c]pyrazol-12-yl)-N-(1-methyl-1H-pyrazol-3-yl)propanamide], in test [1], the inhibition at 0.1 µM was 87%. For the same molecule, the “Rabbit placenta inhibition % @100 nM” value in test [2] came out at 52%.
Turning to `C[C@]12CCC3c4cccc(F)c4CCC3C1[C@H](CCC(=O)N1Cc3ccccc3C1)c1c[nH]nc12` (stereo partly drawn) [Compound 57, 3-((8aS,12S)-3-fluoro-8a-methyl-1,2,6b,7,8,8a,10,12,12a,12b-decahydronaphtho[2′,1′:4,5]indeno[1,2-c]pyrazol-12-yl)-1-(isoindolin-2-yl)propan-1-one], in test [1], the inhibition at 0.1 µM was 92%. Moreover, the “Rabbit placenta inhibition % @100 nM” value in test [2] is 48%.
The matching figures for `COc1ccc(NC(=O)CC[C@@H]2c3c[nH]nc3[C@@]3(C)CCC4c5ccc(F)cc5CCC4C23)nc1` (stereo partly drawn) [Compound 84, 3-((8aS,12S)-4-fluoro-8a-methyl-1,2,6b,7,8,8a,10,12,12a,12b-decahydronaphtho[2′,1′:4,5]indeno[1,2-c]pyrazol-12-yl)-N-(5-methoxypyridin-2-yl)propanamide]: 87% and 27%.
The matching figures for `CC(C)c1ccc(NC(=O)CC[C@@H]2c3c[nH]nc3[C@@]3(C)CCC4c5ccc(F)cc5CCC4C23)nc1` (stereo partly drawn) [Compound 87, 3-((8aS,12S)-4-fluoro-8a-methyl-1,2,6b,7,8,8a,10,12,12a,12b-decahydronaphtho[2′,1′:4,5]indeno[1,2-c]pyrazol-12-yl)-N-(5-isopropylpyridin-2-yl)propanamide]: 87% and 16%.
For `COc1ccnc(NC(=O)CC[C@@H]2c3c[nH]nc3[C@@]3(C)CCC4c5ccc(F)cc5CCC4C23)c1` (stereo partly drawn) [Compound 90, 3-((8aS,12S)-4-fluoro-8a-methyl-1,2,6b,7,8,8a,10,12,12a,12b-decahydronaphtho[2′,1′:4,5]indeno[1,2-c]pyrazol-12-yl)-N-(4-methoxypyridin-2-yl)propanamide] the same measures were 70% and 30%.
Turning to `Cc1ccnc(NC(=O)CC[C@@H]2c3c[nH]nc3[C@@]3(C)CCC4c5ccc(F)cc5CCC4C23)c1` (stereo partly drawn) [Compound 93, 3-((8aS,12S)-4-fluoro-8a-methyl-1,2,6b,7,8,8a,10,12,12a,12b-decahydronaphtho[2′,1′:4,5]indeno[1,2-c]pyrazol-12-yl)-N-(4-methylpyridin-2-yl)-propanamide], the inhibition at 0.1 µM in test [1] came out at 79%. In test [2], the “Rabbit placenta inhibition % @100 nM” value was determined as 31%.
